Data published in article PMC7802075 (ACS Infectious Diseases, 2020).
Structures can show the parent of a compound that is named as a salt.

How the values were obtained:
[1] = tested on: clemastine fumarate-resistant L. major promastigotes (cl.C and cl.D); format: cell-based, Leishmania major
[2] = molecular target: T1, LmjIPCS (inositol phosphorylceramide synthase from L. major) (Leishmania major, UniProt E9AFX2); assay: biochemical; format: biochemical
T1 sequence (E9AFX2 1-338): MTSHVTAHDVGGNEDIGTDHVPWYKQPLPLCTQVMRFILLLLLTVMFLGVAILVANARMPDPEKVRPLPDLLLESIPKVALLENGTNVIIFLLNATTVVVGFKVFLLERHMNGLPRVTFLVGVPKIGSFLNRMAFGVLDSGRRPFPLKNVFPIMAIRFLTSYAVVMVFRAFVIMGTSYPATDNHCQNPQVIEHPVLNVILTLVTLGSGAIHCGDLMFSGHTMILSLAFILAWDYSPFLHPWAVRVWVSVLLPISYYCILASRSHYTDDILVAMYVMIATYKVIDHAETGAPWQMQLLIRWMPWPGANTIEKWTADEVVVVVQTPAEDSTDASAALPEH

[3] = tested on: Leishmania species (L. major, L. amazonensis, L. donovani, L. infantum); assay: Dose response positive control, each Leishmania species; format: cell-based, Leishmania spp.; details: for each species
Description: […]. Resazurin solution (10 μL) was then added and the plate, incubated at 26 °C for 4 h prior to measurement using a fluorescence plate reader (Ex555/Em585). EC50 values were calculated using sigmoidal regression analysis (GraphPad Prism).
[…]. After 24 h of infection, serial dilutions of the test compounds in medium were added and the slides were incubated at 37 °C and 5% CO2 for 5 days (L. major) or 2 days (L. amazonensis). Amphotericin B and miltefosine were used as controls. At the end, cells were fixed with methanol and stained with Giemsa solution, and the intracelular amastigotes were counted using a light microscope. Results were expressed as the percentage reduction of intracellular amastigotes (compared with untreated control wells). EC50 values were calculated using sigmoidal regression analysis (GraphPad Prism).

[4] = tested on: L. major (FV1) promastigotes; assay: Antipromastigote resazurin assay, L. major (FV1) wild type; format: cell-based, Leishmania major; details: Leishmania major; FV1 WT, 48 h, compared with mutant lines; read-out: EC50 wild type L. major promastigotes
[5] = tested on: L. major ΔLmjLCB2 mutant promastigotes; assay: microbe, parasite or virus in culture; format: cell-based; details: Leishmania major; sphingolipid-free mutant, 48 h; read-out: EC50 ΔLmjLCB2 parasites
[6] = tested on: L. major add-back (AB) line promastigotes [pXNEO LmLCB2]; assay: microbe, parasite or virus in culture; format: cell-based; details: Leishmania major, 48 h
[7] = in vivo; cited from earlier work
[8] = in vivo; cited from earlier work; remark: listed apart in the source
[9] = tested on: BMDM uninfected macrophages, nitrite formation; assay: Nitric oxide assay (Griess) in uninfected macrophages; format: cell-based, mouse; details: serial dilutions, 48 h
Description: The release of nitric oxide was measured in the culture supernatant by the Griess method, as described previously.[81] The absorbance was measured at 570 nm, and the nitrite concentration was determined using a standard curve of sodium nitrite (0 to 50 μM). The positive control was macrophages incubated with 1 μg mL^–1 LPS (Sigma-Aldrich, Brazil) and 10% conditioned medium of lymphocytes as a source of IFN. Negative controls were cells treated with DMSO and untreated cells.

[10] = in vivo; cited from earlier work; remark: listed apart in the source
[11] = tested on: wild type Leishmania major promastigotes; format: cell-based
[12] = tested on: L. amazonensis intracellular amastigotes in BMDM from C57BL/6 WT or P2X7R KO mice

Compound: C[C@@H]1[C@H](O)[C@@H](C)/C=C/C=C/C=C/C=C/C=C/C=C/C=C/[C@H](O[C@@H]2O[C@H](C)[C@@H](O)[C@H](N)[C@@H]2O)C[C@@H]2O[C@](O)(C[C@@H](O)C[C@@H](O)[C@H](O)CC[C@@H](O)C[C@@H](O)CC(=O)O[C@H]1C)C[C@H](O)[C@H]2C(=O)O [amphotericin B]
- cross-resistance in clemastine fumarate-resistant L. major clones [1]: no evidence for cross-resistance
- 20mM inhibition LmjIPCS [2]: 41%
- EC50 [3]: 27 ± 3 nM

Compound: C[C@@H]1C[C@@H]([C@H](O)CC2CC(=O)NC(=O)C2)C(=O)[C@@H](C)C1 [cycloheximide, reference compound]
- EC50 [4]: 20 nM
- inhibition at 20000 µM ([2]; read-out: 20mM inhibition LmjIPCS): 9%
- EC50 [5]: 20 nM
- EC50 [6]: 20 nM

Compound: CN1CCC[C@@H]1CCO[C@](C)(c1ccccc1)c1ccc(Cl)cc1 [clemastine fumarate 1, clemastine fumarate]
- oral LD50 (mouse) [7]: 730 mg.kg^–1
- oral LD50 (rat) [8]: 3550 mg.kg^–1
- nitrite formation (NO levels) [9]: no significant effect
- nitrite formation (NO levels) ([9]; listed as clemastine): statistically non-significant
- volume of distribution [10]: 9.5 ± 3.8 L kg^–1
- cell density [11]: no change in cell density
- effect of addition of extracellular ATP, P2X7R KO macrophages [12]: did not show any effect
